Experimental findings from US10206909B2, “3-(1H-pyrrolo[2,3-B]pyridin-2-yl)-1H-pyrazolo[4,3-B]pyridines and therapeutic uses thereof” (Samumed, LLC, priority 2015, dated 2019) are described below.

The test system of test [1] is primary human mesenchymal stem cells (hMSCs). As to the kind of experiment: Chondrogenesis induction in mesenchymal stem cells (nodule count). The class given is cell-based. The following applies: 144 h, 6 days; for EC50: concentration required to induce 50% levels of chondrogenesis vs TGF-β3, read-out: Conc (nM) of 50% TGF-β3 activity; for Emax: relative to TGF-β3 (10 ng/mL) positive control, read-out: Max. Activity as % TGF-β3 activity. On the procedure: Representative compounds were screened using primary human mesenchymal stem cells (hMSCs) to determine their ability to induce chondrogenesis (process by which cartilage is developed).
Human Mesenchymal Stem Cell Culture: Primary human mesenchymal stem cells (hMSCs) were purchased from Lonza (Walkersville, Md.) and expanded in Mesenchymal Stem Cell Growth Media (Lonza). Cells between passage 3 and 6 were used for the experiments.
Compound Screening: Each compound was dissolved in DMSO as a 10 mM stock and used to prepare compound source plates. Serial dilution (1:3, 6-point dose-response curves from 2700 nM to 10 nM) and compound transfer was performed using the ECHO 550 (Labcyte, Sunnyvale, Calif.) into 96-well clear bottom assay plates (Greiner Bio-One) with appropriate DMSO backfill for a final DMSO concentration of 0.03%. hMSCs were plated at 20,000 cells/well in 250 μL/well Incomplete Chondrogenic Induction Medium (Lonza; DMEM, dexamethasone, ascorbate, insulin-transferrin-selenium [ITS supplement], gentamycin-amphotericin [GA-1000], sodium pyruvate, proline and L-glutamine). TGF-β3 (10 ng/mL) was used as a positive control for differentiation while negative control wells were treated with 75 nL DMSO for normalization and calculating EC50 values. Cells were incubated at 37° C. and 5% CO2 for 6 days. To image chondrogenic nodules, the cells were fixed using 4% formaldehyde (Electron Microscopy Sciences), and stained with 2 μg/mL Rhodamine B (Sigma-Aldrich) and 20 μM Nile Red (Sigma-Aldrich) [Johnson K., et. al, A Stem Cell-Based Approach to Cartilage Repair, Science, (2012). 336(6082), 717-721]. The nodules imaged (4 images per well at 4× magnification) by excitation at 531 nm and emission at 625 nm and quantified using the CellInsight CX5 (Thermo Scientific). Number of nodules in each well was normalized to the average of 3 DMSO treated wells on the same plate using Excel (Microsoft Inc.). The normalized averages (fold change over DMSO) of 3 replicate wells for each compound concentration were calculated. Due to solubility limitations of some of the compounds, curve fitting was incomplete leading to inaccurate EC50 determinations.
Using TGF-β3 as a positive control, the concentration of representative compounds required to induce 50% levels of chondrogenesis is reported. In addition, the maximum activity of each compound and the respective dose that each compound reached maximum chondrogenesis activity is reported.

The test system of the next test is IL-6 (THP-1 cells). As to the kind of experiment: IL-6 inhibition in LPS-stimulated THP-1 cells (HTRF). The test is classed as cell-based. The following applies: Homo sapiens; for EC50: THP-1 cells, LPS 500 ng/mL, 22 hours, IL6 HTRF; for inhibition at 10 µM: given where EC50 >10 μM, THP-1, IL6, read-out: percent inhibition at 10 μM. As to the method: Human Monocyte Cell Culture: Human monocyte cell line (THP-1 cells; Catalog # TIB-202, ATCC, Manassas, Va.) were cultured in Roswell Park Memorial Institute (RPMI) 1640 Medium (Catalog #21870-100, Buffalo, N.Y.) with 1% L-glutamine, 1% HEPES, 1% Sodium Pyruvate, 2% Sodium Bicarbonate supplemented with 100 units/mL penicillin, 50 μg/mL streptomycin, 2-mercaptoethanol (0.05 mM) [basal medium] and 10% fetal bovine serum (Catalog #16140089, Life Technologies, Carlsbad, Calif.) at 37° C. and 5% CO2.
Compound Screening: THP-1 cells were cultured in basal media with 1% FBS for 24 hours before the start of the assay. Each compound was dissolved in DMSO as a 10 mM stock and used to prepare compound source plates. Serial dilution (1:3, 10-point dose-response curves starting from 10 μM) and compound transfer was performed using the ECHO 550 (Labcyte, Sunnyvale, Calif.) into 384-well white low volume assay plates (Greiner Bio-One) with appropriate DMSO backfill for a final DMSO concentration of 0.1%. THP-1 cells were plated at 5000 cells/well in the 384-well plates and incubated at 37° C. for 2 h. 500 ng/mL of LPS was added after 2 hours and cells were incubated for another 22 hours at 37° C. Plates were spun in a centrifuge for 1 minute at […] and a mixture of anti-IL6 XL665, and anti-IL6 Cryptate diluted in reconstitution buffer (Cisbio Inc.) was added to each well. Following incubation for 3 hrs at room temperature, Homogeneous Time-Resolved Fluorescence (HTRF) was measured using the Envision (Perkin Elmer) at 665 nm and […]. The ratio of fluorescence at 665 nm to 620 nm was used as a readout for IL6 quantification. All samples were processed in duplicate. Readings were normalized to DMSO treated cells and normalized activities were utilized for EC50 calculations using the dose-response log (inhibitor) vs. response —variable slope (four parameters) nonlinear regression feature available in GraphPad Prism 5.0 (or Dotmatics). For EC50 of >10 μM, the percent inhibition at 10 μM is provided.

Molecules are shown by their SMILES.

In the case of `Fc1cccc(-c2ccnc3[nH]c(-c4n[nH]c5ccc(-c6cncc(CN7CCCCC7)c6)nc45)cc23)c1` [Compound 15, 3-(4-(3-Fluorophenyl)-1H-pyrrolo[2,3-b]pyridin-2-yl)-5-(5-(piperidin-1-ylmethyl)pyridin-3-yl)-1H-pyrazolo[4,3-b]pyridine], in test [1], the EC50 came out at 900 nM and the Emax came to 62%. Besides, in the test on IL-6 (THP-1 cells), the EC50 is greater than 10 µM and the inhibition at 10 µM turned out to be 41%.

`CN(C)Cc1cncc(-c2ccc3[nH]nc(-c4cc5c(-c6ccccc6F)ccnc5[nH]4)c3n2)c1` [Compound 69, 1-(5-(3-(4-(2-Fluorophenyl)-1H-pyrrolo[2,3-b]pyridin-2-yl)-1H-pyrazolo [4,3-b]pyridin-5-yl)pyridin-3-yl)-N,N-dimethylmethanamine]: the Emax in test [1] came to 44%. Further, in the test on IL-6 (THP-1 cells), the EC50 amounted to 1.08 µM.

For `c1cncc(-c2ccc3[nH]nc(-c4cc5c(-c6cccnc6)ccnc5[nH]4)c3n2)c1` [Compound 88, 5-(Pyridin-3-yl)-3-(4-(pyridin-3-yl)-1H-pyrrolo[2,3-b]pyridin-2-yl)-1H-pyrazolo[4,3-b]pyridine], in test [1], the EC50 was 100 nM and the Emax was found to be 59%. Moreover, in the test with IL-6 (THP-1 cells), the EC50 is greater than 10 µM and the inhibition at 10 µM was found to be 38.7%.

`CN(C)c1cncc(-c2ccc3[nH]nc(-c4cc5c(-c6cccnc6)ccnc5[nH]4)c3n2)c1` [Compound 91, N,N-Dimethyl-5-(3-(4-(pyridin-3-yl)-1H-pyrrolo[2,3-b]pyridin-2-yl)-1H-pyrazolo[4,3-b]pyridin-5-yl)pyridin-3-amine]: in test [1], the EC50 is 30 nM and the Emax was 71%. Also, in the test with IL-6 (THP-1 cells), the EC50 is greater than 10 µM and the inhibition at 10 µM was found to be 36.3%.

Turning to `CC(C)Nc1cncc(-c2ccc3[nH]nc(-c4cc5c(-c6cccnc6)ccnc5[nH]4)c3n2)c1` [Compound 96, N-Isopropyl-5-(3-(4-(pyridin-3-yl)-1H-pyrrolo[2,3-b]pyridin-2-yl)-1H-pyrazolo[4,3-b]pyridin-5-yl)pyridin-3-amine], in test [1], the Emax turned out to be 47%. The compound also displayed an EC50 in the test on IL-6 (THP-1 cells) of 0.008 µM.

Regarding `FC1(F)CCN(Cc2cncc(-c3ccc4[nH]nc(-c5cc6c(-c7cccnc7)ccnc6[nH]5)c4n3)c2)C1` [Compound 110, 5-(5-((3,3-Difluoropyrrolidin-1-yl)methyl)pyridin-3-yl)-3-(4-(pyridin-3-yl)-1H-pyrrolo[2,3-b]pyridin-2-yl)-1H-pyrazolo[4,3-b]pyridine], in test [1], the EC50 is 300 nM and the Emax stood at 80%. In the test on IL-6 (THP-1 cells), this compound displayed an EC50 of 4.93 µM.

On to `Nc1cncc(-c2ccc3[nH]nc(-c4cc5c(-c6ccncc6)ccnc5[nH]4)c3n2)c1` [Compound 115, 5-(3-(4-(Pyridin-4-yl)-1H-pyrrolo[2,3-b]pyridin-2-yl)-1H-pyrazolo[4,3-b]pyridin-5-yl)pyridin-3-amine], for which, in test [1], the Emax was found to be 27%. In the test with IL-6 (THP-1 cells), the EC50 is greater than 10 µM and the inhibition at 10 µM was 22.2%.

As for `Cc1ccncc1-c1ccc2[nH]nc(-c3cc4c(-c5ccncc5)ccnc4[nH]3)c2n1` [Compound 117, 5-(4-Methylpyridin-3-yl)-3-(4-(pyridin-4-yl)-1H-pyrrolo[2,3-b]pyridin-2-yl)-1H-pyrazolo[4,3-b]pyridine], in test [1], the EC50 is 300 nM and the Emax amounted to 56%. In the test on IL-6 (THP-1 cells), the EC50 was greater than 10 µM and the inhibition at 10 µM came to 45.3%.

Turning to `c1cc(-c2ccnc3[nH]c(-c4n[nH]c5ccc(-c6cncc(CN7CCCCC7)c6)nc45)cc23)ccn1` [Compound 127, 5-(5-(Piperidin-1-ylmethyl)pyridin-3-yl)-3-(4-(pyridin-4-yl)-1H-pyrrolo[2,3-b]pyridin-2-yl)-1H-pyrazolo[4,3-b]pyridine], in test [1], the EC50 came to 2700 nM and the Emax came out at 55%. For the same compound, in the test with IL-6 (THP-1 cells), the EC50 was greater than 10 µM and the inhibition at 10 µM is 30.2%.

Take `c1cc(-c2ccnc3[nH]c(-c4n[nH]c5ccc(-c6cncc(CNCC7CCCC7)c6)nc45)cc23)ccn1` [Compound 137, 1-Cyclopentyl-N-((5-(3-(4-(pyridin-4-yl)-1H-pyrrolo[2,3-b]pyridin-2-yl)-1H-pyrazolo[4,3-b]pyridin-5-yl)pyridin-3-yl)methyl)methanamine]: in test [1], the EC50 is 100 nM and the Emax is 67%. In addition, in the test on IL-6 (THP-1 cells), the EC50 was greater than 10 µM and the inhibition at 10 µM is 40.8%.

On to `Cc1ccncc1-c1ccc2[nH]nc(-c3cc4c(N5CCCCC5)ccnc4[nH]3)c2n1` [Compound 173, 5-(4-Methylpyridin-3-yl)-3-(4-(piperidin-1-yl)-1H-pyrrolo[2,3-b]pyridin-2-yl)-1H-pyrazolo[4,3-b]pyridine], for which the EC50 was 900 nM in test [1] and 0.967 µM in the test on IL-6 (THP-1 cells). Also, the Emax in test [1] is 101%.

Turning to `CN(C)Cc1cncc(-c2ccc3[nH]nc(-c4cc5c(N6CCCCC6)ccnc5[nH]4)c3n2)c1` [Compound 181, N,N-Dimethyl-1-(5-(3-(4-(piperidin-1-yl)-1H-pyrrolo[2,3-b]pyridin-2-yl)-1H-pyrazolo[4,3-b]pyridin-5-yl)pyridin-3-yl)methanamine], in test [1], the EC50 was 10 nM and the Emax stood at 82%. Moreover, in the test on IL-6 (THP-1 cells), the EC50 is greater than 10 µM and the inhibition at 10 µM amounted to 29.2%.

For the compound `CCCCC(=O)Nc1cncc(-c2ccc3[nH]nc(-c4cc5c(N6CCCCC6)ccnc5[nH]4)c3n2)c1` [Compound 187, N-(5-(3-(4-(Piperidin-1-yl)-1H-pyrrolo[2,3-b]pyridin-2-yl)-1H-pyrazolo[4,3-b]pyridin-5-yl)pyridin-3-yl)pentanamide], in test [1], the EC50 came out at 10 nM and the Emax is 92%. The EC50 in the test with IL-6 (THP-1 cells) came out at 0.34 µM.

For `FC1(F)CCN(Cc2cncc(-c3ccc4[nH]nc(-c5cc6c(N7CCCCC7)ccnc6[nH]5)c4n3)c2)C1` [Compound 194, 5-(5-((3,3-Difluoropyrrolidin-1-yl)methyl)pyridin-3-yl)-3-(4-(piperidin-1-yl)-1H-pyrrolo[2,3-b]pyridin-2-yl)-1H-pyrazolo[4,3-b]pyridine], in test [1], the Emax came out at 38%. This compound also showed an EC50 in the test on IL-6 (THP-1 cells) of 6.95 µM.

As for `Cn1cc(-c2ccc3[nH]nc(-c4cc5cccnc5[nH]4)c3n2)cn1` [Compound 652, 5-(1-Methyl-1H-pyrazol-4-yl)-3-(1H-pyrrolo[2,3-b]pyridin-2-yl)-1H-pyrazolo[4,3-b]pyridine], in the test with IL-6 (THP-1 cells), the EC50 was 0.046 µM.

Regarding `c1csc(-c2ccnc3[nH]c(-c4n[nH]c5ccc(-c6cncc(OC7CCCCC7)c6)nc45)cc23)c1` [Compound 703, 5-(5-(Cyclohexyloxy)pyridin-3-yl)-3-(4-(thiophen-2-yl)-1H-pyrrolo[2,3-b]pyridin-2-yl)-1H-pyrazolo[4,3-b]pyridine], the EC50 in the test on IL-6 (THP-1 cells) stood at 0.303 µM.
